Data on two compounds can be found in patent publication US20230310412A1, “USE OF CASPASE INHIBITOR FOR ALLEVIATING OR TREATING OSTEOARTHRITIS” (LG CHEM, LTD., priority 2020, published 2023).

SMILES strings stand for the structures. “Also recorded” adds a separate entry of the source.

The test system of assay [1] is osteoarthritis-induced beagle dogs. The assay is described as follows: Efficacy on improving walking ability (lameness score) in animal model of osteoarthritis. The assay is classed as in vivo. On the procedure: Beagle dogs were purchased from Orient Bio, and healthy animals were used for the experiment after a one-week quarantine cycle. After 1 week of recovery after surgical anterior cruciate ligament transection with medial meniscectomy, forced exercise for 30 minutes every day was carried out to induce osteoarthritis. The surgery for inducing osteoarthritis was performed under anesthesia after the animals were depilated on both knees. After broad disinfection of the incision site with povidone and 70% ethanol, the skin of the right knee was incised. By blunt dissection of the surrounding tissues, the articular surface of the distal end of femur was exposed. An instrument portal was created on the medial articular surface, and the meniscus and anterior cruciate ligament were excised. Wound closure was performed by the use of 4-0 nylon suture. […] The assessment about walking ability for evaluating the pain status and functional level of osteoarthritis animals was carried out according to the method proposed by Pashuck et al. (Troy D. Pashuck et al., J Orthop Res, 2016, 34(10): 1772-1779), and the lameness score as represented in Table 1 was recorded until the end of the experiment. […] The efficacy of nivocasan in an animal model of osteoarthritis was measured by evaluating the lameness score twice a week after a single intra-articular administration. […]

Assay [2] has as its system beagle dog model of osteoarthritis. Kind of assay: MRI evaluation of effect on joint structure in animal model of osteoarthritis. The assay is classed as in vivo. The conditions noted are these: MRI before vs 3 months after single intra-articular administration; FIG. 6. Here is the method:
In a beagle dog model of osteoarthritis induced by daily forced exercise after surgical anterior cruciate ligament transection with medial meniscectomy, the effect on joint structure was evaluated by taking an MRI (SIGNA Pioneer 3.0T MR, GE Healthcare Co., USA) of the joint before a single intra-articular administration and 3 months thereafter.

In assay [3] the test system is IL-1β secretion in THP-1 cells. The assay is described as follows: Suppressive efficacy against LPS/nigericin-induced IL-1β secretion in THP-1 cells. The assay is classed as cell-based, human. As to conditions: PMA-differentiated, LPS 100 ng/ml 24 h, compound 30 min, then 5 μM nigericin & 1 mM ATP 1 h, ELISA, FIG. 1. Here is the method:
To evaluate the inflammation blocking effects of nivocasan, IL-1β secretion was measured in THP-1 cells under conditions in which inflammation was induced by lipopolysaccharide (LPS)/nigericin treatment. The day before LPS treatment, THP-1 cells were plated at 2.5×10^5 cells/well (24-well plate) in RPMI-1640 media and treated with 0.5 μM phorbol 12-myristate 13-acetate (PMA) for macrophage differentiation during overnight culture. The media was then changed with Opti-MEM media and the cells were incubated with LPS 100 ng/ml (the first inflammation signal for […] up-regulation) for 24 hours. The cells were then washed with PBS twice and treated with nivocasan or DMSO for 30 minutes in Opti-MEM media, followed by incubation with 5 μM nigericin & 1 mM ATP for 1 hour to activate inflammasome (NLRP3 activation and IL-1β secretion). Secreted IL-1β was measured from cell media by using R&D Systems Quantikine human IL-1β (detection limit: 7.8 pg/ml), and the results are represented in FIG. 1.
(In an ELISA, binding on a coated surface is turned into a signal by an enzyme label.)

Assay [4] relates to IL-1β secretion in human peripheral blood mononuclear cells (PBMCs). Kind of assay: Suppressive efficacy against LPS-induced IL-1β secretion in human-derived PBMC. Format: cell-based. As to conditions: FIG. 2. Here is the method:
The inhibitory effects of nivocasan on inflammasome activation in human peripheral blood mononuclear cells (PBMCs) were evaluated by measuring LPS-induced IL-1β secretion. Freshly isolated PBMCs were plated at 2.5×10^5 cells/well (24-well plate) in RPMI-1640 media and treated with nivocasan or DMSO for 30 minutes, followed by incubation with 100 ng/ml LPS for 24 hours to induce inflammation. Levels of IL-1β in PBMC supernatants was measured by ELISA (R&D Systems Quantikine human IL-1β; detection limit: 7.8 pg/ml), and the results are represented in FIG. 2.

The test system of a further assay is human chondrocytes. The assay is described as follows: Protective effect on TNF-α-induced apoptosis in human-derived chondrocytes. Format: cell-based. The conditions noted are these: human normal chondrocytes, compound 30 min, then 10 ng/ml TNF-α and 1 μg/ml actinomycin D 18 h; Cell Death Detection ELISA; FIG. 3. On the procedure: The protective effect of nivocasan on TNF-α-induced apoptosis was evaluated in human chondrocytes. Human normal chondrocytes were plated at 1×10^5 cells/well (collagen-coated 24-well plate) in chondrocyte media (Prigrow IV Medium, Applied Biological Materials Inc.) and incubated overnight. The cells were treated with nivocasan or DMSO for 30 minutes, followed by incubation with 10 ng/ml human recombinant TNF-α and 1 μg/ml actinomycin D for 18 hours to induce apoptosis. Apoptosis was measured by using Cell Death Detection ELISA kit, and the results are represented in FIG. 3.

Assay [5] relates to beagle dog model of osteoarthritis. The assay is described as follows: Histopathological evaluation of effect on joint in animal model of osteoarthritis. Format: in vivo. Here is the method: In a beagle dog model of osteoarthritis induced by daily forced exercise after surgical anterior cruciate ligament transection with medial meniscectomy, an autopsy was performed 3 months after a single intra-articular administration, and the joint was collected and fixed. The fixed tissue was subjected to conventional tissue processing such as demineralization, trimming, dehydration, paraffin embedding, sectioning and the like to prepare a specimen for histopathological examination, followed by hematoxylin eosin and safranin-o staining. An optical microscopy (Olympus BX53, Japan) was used to observe histopathological changes.
Histopathological evaluation was performed by comparing between groups with scoring as shown in Tables 3 to 8 according to the method proposed by Cook et al. (Cook et al., Osteoarthritis Cartilage. 2010; 18 Suppl 3:S66-S79), and the results are represented in FIG. 7.

For the compound `C[C@H](NC(=O)C(=O)Nc1ccccc1C(C)(C)C)C(=O)N[C@@H](CC(=O)O)C(=O)COc1c(F)c(F)cc(F)c1F` [emricasan, N-(2-tert-butylphenyl)-2-oxoglycyl-N-[1(S)-(carboxymethyl)-2-oxo-3-(2,3,5,6-tetrafluorophenoxy)propyl]-L-alaninamide, reference compound], the “improvement of walking ability (lameness score), compared with nivocasan” value in assay [1] (single intra-articular administration of 10 mg, FIG. 5) is on record as “improvement of a walking ability similar to that of 10 mg of nivocasan”. Also, in assay [2], the “bone marrow lesion (MRI score)” value is “improvement” and the “synovitis (MRI score)” value was “improvement”.
In the case of `CC(C)[C@@]1(C(=O)N[C@H]2CC(=O)O[C@]2(O)CF)CC(c2nccc3ccccc23)=NO1` [nivocasan, (R)—N-((2S,3S)-2-(fluoromethyl)-2-hydroxy-5-oxotetrahydrofuran-3-yl]-5-isopropyl-3-(isoquinolin-1-yl)-4,5-dihydroisoxazole-5-carboxamide], in assay [3], the “suppression of LPS/nigericin-induced IL-1β secretion” value is “suppressed LPS/nigericin-induced IL-1β secretion in THP-1 cells in a dose-dependent manner”. For the same compound, the “concentration showing maximum effect on LPS-induced IL-1β secretion” value in assay [4] (100 ng/ml LPS 24 h) is 0.3 µM. Further, the “suppression of LPS-induced IL-1β secretion” value in assay [4] (compound 30 min, then 100 ng/ml LPS 24 h, ELISA) is listed as “suppressed LPS-induced IL-1β secretion from PBMCs in a dose dependent manner”. In the assay with human chondrocytes, the “prevention of TNF-α-induced apoptosis” value is “prevented TNF-α-induced apoptosis in human chondrocytes in a dose-dependent manner”. Moreover, the “improvement of walking ability (lameness score)” value in assay [1] (single intra-articular administration 0.1, 0.3, 1, 3 and 10 mg/knee, scored twice a week for 3 months, FIG. 4) is recorded as “showed the efficacy of the improvement of walking ability in a dose-dependent manner; also recorded: effective in improving walking ability”. In assay [2], the “bone marrow lesion (MRI score)” value is “improvement” and the “synovitis (MRI score)” value is “improvement”. In addition, the “histopathology evaluation of the joints” value in assay [5] (autopsy 3 months after single intra-articular administration, FIG. 7) is listed as “dose-related histopathological improvement”. The improving cartilage structure entry in assay [5] (single administration, summary of Examples 4 to 6) was “effective in improving cartilage structure”.
